From the NIST ThermoML archive (doi:10.1021/je049895b)
Where “and” joins values, the source holds several entries; their conditions need not be identical. Equal values may be shown once.

Experiments:
[1] = xn = mol fraction of the nth substance listed; conditions: 101.33 kPa, Liquid; for viscosity: Capillary tube (Ostwald / Ubbelohde) method
[2] = 101.33 kPa, Liquid; for viscosity: Capillary tube (Ostwald / Ubbelohde) method

CCOC(=O)OCC [diethyl carbonate] + C1CCCC1
[1], x1 = 1
Conditions | mass density [kg/m3] | speed of sound [m/s] | viscosity [mPa·s]
293.15 K | 974.8 | 1197 | 0.809
298.15 K | 969.21 | 1177 | 0.75
303.15 K | 963.58 | 1156 | 0.702
308.15 K | 957.93 | 1136 | 0.658
313.15 K | 952.26 | 1116 | 0.618

C1CCCC1 [cyclopentane]
[2]
Conditions | mass density [kg/m3] | speed of sound [m/s] | viscosity [mPa·s]
293.15 K | 744.43 | 1232 | 0.438
298.15 K | 739.47 | 1206 | 0.415
303.15 K | 734.47 | 1180 | 0.394
308.15 K | 729.42 | 1154 | 0.374
313.15 K | 724.32 | 1129 | 0.355

COC(=O)OC [dimethyl carbonate] + C1CCCC1
[1], x1 = 1
Conditions | mass density [kg/m3] | speed of sound [m/s] | viscosity [mPa·s]
293.15 K | 1069.9 | 1220 | 0.623
298.15 K | 1063.33 | 1198 | 0.584
303.15 K | 1056.71 | 1177 | 0.549
308.15 K | 1050.07 | 1155 | 0.517
313.15 K | 1043.39 | 1134 | 0.488

CCOC(=O)OCC [diethyl carbonate]
[2]
Conditions | mass density [kg/m3] | speed of sound | viscosity [mPa·s]
293.15 K | 974.8 | 1197 m/s and 1198 m/s | 0.809
298.15 K | 969.21 | 1177 m/s | 0.75
303.15 K | 963.58 | 1156 m/s and 1157 m/s | 0.702
308.15 K | 957.93 | 1136 m/s | 0.658
313.15 K | 952.26 | 1116 m/s | 0.618

CC1CCCCC1 [methylcyclohexane]
[2]
Conditions | speed of sound [m/s] | viscosity [mPa·s]
293.15 K | 1237 | 0.729
298.15 K | 1215 | 0.681
303.15 K | 1193 | 0.637
308.15 K | 1172 | 0.598
313.15 K | 1150 | 0.562

CC1CCCCC1 [methylcyclohexane] + CCOC(=O)OCC
[1], x2 = 0
Conditions | speed of sound [m/s] | viscosity [mPa·s]
293.15 K | 1237 | 0.729
298.15 K | 1215 | 0.681
303.15 K | 1193 | 0.637
308.15 K | 1172 | 0.598
313.15 K | 1150 | 0.562

COC(=O)OC [dimethyl carbonate]
[2]
Conditions | mass density [kg/m3] | speed of sound [m/s] | viscosity [mPa·s]
293.15 K | 1069.9 | 1220 | 0.623
298.15 K | 1063.33 | 1198 | 0.584
303.15 K | 1056.71 | 1177 | 0.549
308.15 K | 1050.07 | 1155 | 0.517
313.15 K | 1043.39 | 1134 | 0.488
